From patent US8609391B2, “Mannose-6-phosphate isomerase, mutant thereof, and use thereof” (Konkuk University Industrial Cooperation Corp., priority 2009, dated 2013)

How the values were obtained:
[1] = target: T1, Thermus thermophilus mannose-6-phosphate isomerase (Sequence No. 1) variant R142Y (Thermus thermophilus, UniProt Q5SIM4, R142Y); assay: Kinetic parameters to L-ribulose, R142Y mutant; assay type: biochemical; details: 75° C., pH 7.0, 0.5 mM Cu^2+
T1 construct: site-directed mutant
Experimental: (§1) The experiment for measuring and comparing specific activities of the mannose-6-isomerase and mutant enzyme to L-ribulose was performed.
(§2) The enzyme reaction was performed at 75° C. for 5 minutes using 50 mM PIPES buffer solution (pH 7.0) including 10 mM ribulose and the metal ion of 0.5 mM Cu^2+ and then again stopped by adding a final concentration of 200 mM hydrogen chloride. In the present invention, the enzyme activity was measured by using […] as a substrate, and one unit of the enzyme activity was defined as the amount of enzyme required to produce 1 nmole of L-Ribose per 1 minute at 75° C. and pH 7.0 for a smooth comparative analysis. In addition, when measuring the enzyme activity, the analysis of the concentrations of ribose and ribulose, and other sugars was performed by using Bio liquid chromatography (Bio-LC) system (DIONEX ICS-3000, Sunnylvale, Calif., USA) installed with CarboPacPA and an electrochemical detector. At this point, 200 mM sodium hydroxide (NaOH) was passed through the CarboPacPA column at the rate of 1 ml/min at 30° C.

[2] = target: T2, Thermus thermophilus mannose-6-phosphate isomerase (Sequence No. 1) variant R142A (Thermus thermophilus, UniProt Q5SIM4, R142A); assay: Kinetic parameters to L-ribulose, R142A mutant; assay type: biochemical; details: 75° C., pH 7.0, 0.5 mM Cu^2+
T2 construct: site-directed mutant
T2 sequence (Q5SIM4 entry or part of it R142A): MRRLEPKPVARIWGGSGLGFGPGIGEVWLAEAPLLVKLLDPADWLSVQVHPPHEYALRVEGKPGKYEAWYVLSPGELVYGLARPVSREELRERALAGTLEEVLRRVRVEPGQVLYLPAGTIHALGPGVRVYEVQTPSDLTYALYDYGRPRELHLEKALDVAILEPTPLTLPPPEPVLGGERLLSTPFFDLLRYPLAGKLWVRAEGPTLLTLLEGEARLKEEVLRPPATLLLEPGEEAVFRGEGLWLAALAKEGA
Experimental: as §1, §2

[3] = target: T3, Thermus thermophilus mannose-6-phosphate isomerase, wild type, Sequence No. 1 (gene SEQ ID NO: 3) (Thermus thermophilus, UniProt Q5SIM4); assay: Kinetic parameters to L-ribulose, wild enzyme; assay type: biochemical; details: 75° C., pH 7.0, 0.5 mM Cu^2+
T3 sequence (Q5SIM4 1-254): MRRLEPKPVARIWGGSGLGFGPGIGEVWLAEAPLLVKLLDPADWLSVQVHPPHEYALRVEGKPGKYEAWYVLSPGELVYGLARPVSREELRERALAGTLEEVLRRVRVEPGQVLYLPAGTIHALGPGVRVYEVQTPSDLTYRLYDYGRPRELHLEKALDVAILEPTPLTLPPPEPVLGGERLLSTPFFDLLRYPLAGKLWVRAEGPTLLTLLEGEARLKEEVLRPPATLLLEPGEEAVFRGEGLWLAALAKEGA
Experimental: as §1, §2

[4] = target: T4, Thermus thermophilus mannose-6-phosphate isomerase (Sequence No. 1) variant R142K (Thermus thermophilus, UniProt Q5SIM4, R142K); assay: Kinetic parameters to L-ribulose, R142K mutant; assay type: biochemical; details: 75° C., pH 7.0, 0.5 mM Cu^2+
T4 construct: site-directed mutant
T4 sequence (Q5SIM4 entry or part of it R142K): as the sequence (Q5SIM4 entry or part of it R142A) above, with A142K counted along it
Experimental: as §1, §2

[5] = target: T5, Thermus thermophilus mannose-6-phosphate isomerase (Sequence No. 1) variant R142N (gene SEQ ID NO: 5) (Thermus thermophilus, UniProt Q5SIM4, R142N); assay: Kinetic parameters to L-ribulose, R142N mutant; assay type: biochemical; details: 75° C., pH 7.0, 0.5 mM Cu^2+
T5 construct: site-directed mutant
T5 sequence (Q5SIM4 1-254 R142N): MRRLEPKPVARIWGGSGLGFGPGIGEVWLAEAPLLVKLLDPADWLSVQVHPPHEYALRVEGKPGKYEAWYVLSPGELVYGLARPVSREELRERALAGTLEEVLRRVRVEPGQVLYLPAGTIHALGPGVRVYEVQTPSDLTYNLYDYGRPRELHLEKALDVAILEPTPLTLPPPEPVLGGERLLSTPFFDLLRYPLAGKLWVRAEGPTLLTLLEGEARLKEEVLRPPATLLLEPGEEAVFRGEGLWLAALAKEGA
Experimental: as §1, §2

[6] = target: T6, Thermus thermophilus mannose-6-phosphate isomerase (Sequence No. 1) variant R142E (Thermus thermophilus, UniProt Q5SIM4, R142E); assay: Kinetic parameters to L-ribulose, R142E mutant; assay type: biochemical; details: 75° C., pH 7.0, 0.5 mM Cu^2+
T6 construct: site-directed mutant
T6 sequence (Q5SIM4 entry or part of it R142E): as the sequence (Q5SIM4 entry or part of it R142A) above, with A142E counted along it
Experimental: as §1, §2

[7] = substrate: O=C(CO)[C@@H](O)[C@@H](O)CO; assay: Kinetic parameters to L-ribulose, R142N mutant; assay type: biochemical, Thermus thermophilus; details: other: 75° C., pH 7.0, 0.5 mM Cu^2+
Experimental: as §1, §2

[8] = substrate: O=C(CO)[C@@H](O)[C@@H](O)CO; assay: Kinetic parameters to L-ribulose, wild enzyme; assay type: biochemical, Thermus thermophilus; details: other: 75° C., pH 7.0, 0.5 mM Cu^2+
Experimental: as §1, §2

T1 sequence (Q5SIM4 entry or part of it R142Y): as the sequence (Q5SIM4 entry or part of it R142A) above, with A142Y counted along it

`O=C(CO)[C@@H](O)[C@@H](O)CO` [L-ribulose] gave a kcat [1] of 56178 ± 865 s⁻¹, a kcat/Km [1] of 182000 ± 5000 M⁻¹ s⁻¹ and a kcat [2] of 64873 ± 908 s⁻¹. It also gave a kcat/Km [2] of 353000 ± 11000 M⁻¹ s⁻¹, a kcat [3] of 50644 ± 709 s⁻¹ and a kcat/Km [3] of 374000 ± 11000 M⁻¹ s⁻¹. It also gave a kcat [4] of 68877 ± 964 s⁻¹, a kcat/Km [4] of 302000 ± 9000 M⁻¹ s⁻¹ and a kcat [5] of 81063 ± 1329 s⁻¹. The kcat/Km [5] was 579000 ± 20000 M⁻¹ s⁻¹, the “increase of catalytic efficiency as compared to the wild enzyme” value ([5]; ratio R142N / wild) was 1.5 fold and the kcat [6] was 32666 ± 536 s⁻¹. For the same molecule, the kcat/Km [6] was 216000 ± 8000 M⁻¹ s⁻¹.

B1: Thermus thermophilus mannose-6-phosphate isomerase (Sequence No. 1) variant R142N (gene SEQ ID NO: 5) (Thermus thermophilus HB8; R142N) (protein)
chain: MRRLEPKPVARIWGGSGLGFGPGIGEVWLAEAPLLVKLLDPADWLSVQVHPPHEYALRVEGKPGKYEAWYVLSPGELVYGLARPVSREELRERALAGTLEEVLRRVRVEPGQVLYLPAGTIHALGPGVRVYEVQTPSDLTYNLYDYGRPRELHLEKALDVAILEPTPLTLPPPEPVLGGERLLSTPFFDLLRYPLAGKLWVRAEGPTLLTLLEGEARLKEEVLRPPATLLLEPGEEAVFRGEGLWLAALAKEGA
notes: site-directed mutant
B1 showed a kcat/Km [7] of 579000 M⁻¹ s⁻¹.

B2: Thermus thermophilus mannose-6-phosphate isomerase, wild type, Sequence No. 1 (gene SEQ ID NO: 3) (Thermus thermophilus HB8) (protein)
chain: MRRLEPKPVARIWGGSGLGFGPGIGEVWLAEAPLLVKLLDPADWLSVQVHPPHEYALRVEGKPGKYEAWYVLSPGELVYGLARPVSREELRERALAGTLEEVLRRVRVEPGQVLYLPAGTIHALGPGVRVYEVQTPSDLTYRLYDYGRPRELHLEKALDVAILEPTPLTLPPPEPVLGGERLLSTPFFDLLRYPLAGKLWVRAEGPTLLTLLEGEARLKEEVLRPPATLLLEPGEEAVFRGEGLWLAALAKEGA
For B2, the kcat/Km [8] was 374000 M⁻¹ s⁻¹.
